This is an account of results in the NIST ThermoML archive (doi:10.1016/j.tca.2018.08.012).

For this series the following is noted: DSC.

± gives the expanded uncertainty stated by the source.

On to `Cc1cc(C)c2c(c1)CN(c1ccc(Cc3ccc(N4COc5c(C)cc(C)cc5C4)cc3)cc1)CO2`, for which the Triple point temperature came out at 406.15 ± 10 K (Crystal 1) and 390.15 ± 10 K (Crystal 2).
For `Cc1ccc2c(c1)OCN(c1ccc(Cc3ccc(N4COc5cc(C)ccc5C4)cc3)cc1)C2`, the Triple point temperature (Crystal) turned out to be 435.15 ± 10 K.
In the case of `c1ccc2c(c1)CN(c1ccc(Cc3ccc(N4COc5ccccc5C4)cc3)cc1)CO2` [bis(4-(2H-benzo[e][1,3]oxazin-3(4H)-yl)phenyl)methane], the Triple point temperature is 357.15 ± 10 K (Crystal 1) and 328.15 ± 10 K (Crystal 2).
Regarding `Cc1ccc2c(c1)CN(c1ccc(Cc3ccc(N4COc5ccc(C)cc5C4)cc3)cc1)CO2`, the Triple point temperature (Crystal 1) is 432.15 ± 10 K.
